Entries after “also recorded” stand apart in the source; their conditions may differ.
Key:
[1] = target: T1, flavonoid-3-glycosyl transferase derived from gentians (Gentiana triflora, UniProt Q96493); conditions: substance used as substrate; enzyme expressed in E coli; cited from earlier work
T1 construct: host or cells: E. coli
T1 sequence (Q96493 1-453): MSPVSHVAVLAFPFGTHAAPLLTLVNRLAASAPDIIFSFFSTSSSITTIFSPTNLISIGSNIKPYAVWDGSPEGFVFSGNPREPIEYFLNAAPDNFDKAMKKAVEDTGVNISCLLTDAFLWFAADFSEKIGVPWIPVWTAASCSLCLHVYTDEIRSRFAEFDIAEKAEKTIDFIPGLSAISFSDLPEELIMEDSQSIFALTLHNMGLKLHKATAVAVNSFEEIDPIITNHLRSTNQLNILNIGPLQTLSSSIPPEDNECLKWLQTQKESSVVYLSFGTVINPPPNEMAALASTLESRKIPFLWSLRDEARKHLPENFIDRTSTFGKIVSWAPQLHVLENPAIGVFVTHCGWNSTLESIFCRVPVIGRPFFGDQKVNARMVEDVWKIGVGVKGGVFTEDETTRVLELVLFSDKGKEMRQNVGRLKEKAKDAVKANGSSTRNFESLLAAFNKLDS

[2] = target: T2, flavonoid-3-glycosyl transferase derived from grapes (Vitis vinifera, UniProt P51094); conditions: substance used as substrate; activity determined in E. coli; cited from earlier work
T2 construct: host or cells: E. coli
T2 sequence (P51094 1-456): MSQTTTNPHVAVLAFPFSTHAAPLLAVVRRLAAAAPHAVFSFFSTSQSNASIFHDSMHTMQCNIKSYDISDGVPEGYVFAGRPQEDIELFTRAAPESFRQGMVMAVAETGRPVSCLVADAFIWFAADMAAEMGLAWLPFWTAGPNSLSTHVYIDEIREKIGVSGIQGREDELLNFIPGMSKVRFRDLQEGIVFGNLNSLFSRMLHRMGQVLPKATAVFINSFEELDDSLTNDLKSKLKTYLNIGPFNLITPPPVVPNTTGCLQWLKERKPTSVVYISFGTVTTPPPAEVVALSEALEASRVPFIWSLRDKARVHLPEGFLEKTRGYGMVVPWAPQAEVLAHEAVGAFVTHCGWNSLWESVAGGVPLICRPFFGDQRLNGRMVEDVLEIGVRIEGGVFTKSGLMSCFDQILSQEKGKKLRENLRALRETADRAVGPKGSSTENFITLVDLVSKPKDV

[3] = system: product of the pS.b UFGT1 gene; conditions: substrate baicalein; cited from earlier work
[4] = system: product of the pS.b UFGT1 gene; assay: Glycosyl transferase activity of pS.b UFGT1 gene product (crude E. coli extract, UDP-glucose, HPLC); format: biochemical, Scutellaria baicalensis; conditions: crude enzyme solution, 30° C., HPLC detection of glycosides
Method: The activity of the pS.b UFGT1 gene derived from Scutellaria baicalensis of transferring a glycosyl group to aurones was determined using an expression vector pESBGT-1 in E. coli prepared by the following method.
The PCR product was digested with NdeI and BamHI, and then was ligated to the NdeI- and BamHI-digested pET-3a vector (Stratagene) to construct pESBGT-1 (FIG. 1). Using each of pESBGT-1 and pET-3a vector, it was transformed into Epicurian Coli BL21 (DE3) (Stratagene). The transformants were incubated overnight at 37° C. in 3 ml of a LB medium containing 50 μg/ml of ampicillin. The preculture (500 μl) was added to 50 ml of a LB medium containing 50 μg/ml of ampicillin, and cultured until A600 reached 0.6-1.0. Then isopropyl-β-D-thiogalactopyranoside (IPTG) was added thereto to a final concentration of 0.5 mM, which was cultured at 28° C. for 4 hours and centrifuged (5000 rpm, 10 minutes, 4° C.) to collect the cells.
The pellets were suspended in 5 ml of the buffer (10 mM sodium phosphate, pH 6.5, 1 mM β-mercaptoethanol (2-ME)). After the E. coli cells were disrupted by a sonicator, it was centrifuged (15,000 rpm, 5 minutes, […]), and the supernatant obtained was used as a crude enzyme solution for the next enzyme reaction.
In addition to aureusidin, the enzymatic activity was determined using naringenin or luteolin as the substrate.
To 50 μl of the crude enzyme solution were added 0.1 M Tris-HCl, pH 8.0, and 150 μl of 0.05% 2-ME, and then incubated at 30° C. for 10 minutes. Then 5 μl of 4.66 mM aureusidin and 50 μl of 5 mM UDP-glucose were added thereto, and was allowed to react at 30° C. for 1 hour. […] The filtrate was analyzed by high performance liquid chromatography. […]
To 20 μl of the crude enzyme solution were added 25 μl of 0.1 M citric acid-phosphate buffer, pH 6.5, 5 μl each of 5 μM substrate, and 25 μl of 5 mM UDP-glucose in a total volume of 250 μl, and then incubated at 30° C. for 30 minutes. […] The filtrate was analyzed by high performance liquid chromatography. […]

AmGT1 = assay: Glycosyl transferase activity of the AmGT1 cDNA recombinant protein; format: biochemical, snapdragons (Antirrhinum majus); conditions: crude extract, UDP-glucose, HPLC, as in Example 1
Method: (§1) To 50 μl of the crude enzyme solution were added 0.1 M Tris-HCl, pH 8.0, and 150 μl of 0.05% 2-ME, and then incubated at 30° C. for 10 minutes. Then 5 μl of 4.66 mM aureusidin and 50 μl of 5 mM UDP-glucose were added thereto, and was allowed to react at 30° C. for 1 hour. After the reaction was stopped by adding 200 μl of 90% acetonitrile containing 5% trifluoroacetic acid (TFA), it was centrifuged at 15,000 rpm and 4° C. for 3 minutes. The supernatant thus obtained was filtered (pore size 0.45 μm, 4 mm Millex-LH, Millipore) to remove insoluble substances. The filtrate was analyzed by high performance liquid chromatography.
(§2) The analytical condition was as follows: The column used was Asahipak-ODP-50 (4.6 mm φ×250 mm, Showa Denko). The mobile phase comprised water containing 0.1% TFA as solution A and 90% CH3CN containing 0.1% TFA as solution B. After a linear gradient from 20% solution B to 100% solution B for 20 minutes, 100% solution B was retained for 5 minutes. The flow rate was 0.6 ml/min. Detection used A380 nm, and an absorption spectrum at 250-400 nm using Shimadzu PDA detector SPD-M6A.
The transformant obtained in Example 4 was cultured, extracted and the enzymatic activity was measured as in Example 1.

Ph7GTa = assay: Glycosyl transferase activity of Ph7GTa cDNA recombinant protein; format: biochemical, petunia (Petunia hybrida); conditions: crude extract, UDP-glucose, HPLC, as in Example 1
Method: as §1, §2
(§3) The transformants obtained in Example 8 were cultured, extracted and the enzymatic activity was measured as in Example 1. The enzymatic activity was measured using aureusidin as the substrate. […]

Ph7GTb = assay: Glycosyl transferase activity of Ph7GTb cDNA recombinant protein; format: biochemical, petunia (Petunia hybrida); conditions: crude extract, UDP-glucose, HPLC, as in Example 1
Method: as §1, §2, §3

| Compound | glycosyl transferase activity relative to a 100% activity to delphinidins [1] | glycosilation of the substrate by the pS.b UFGT1 product [4] | also measured |
| --- | --- | --- | --- |
| O=c1c(O)c(-c2cc(O)c(O)c(O)c2)oc2cc(O)cc(O)c12 [myricetin] | 4.4% |  |  |
| cyanidins | 61% |  | Km [2]: 30 µM; Vmax [2]: 905 nkatals/mg |
| O=c1c(O)c(-c2ccc(O)cc2)oc2cc(O)cc(O)c12 [kaempferol] | 7.0% |  |  |
| pelargonidins | 38% |  |  |
| delphinidins | 100% |  |  |
| O=c1cc(-c2ccccc2)oc2cc(O)c(O)c(O)c12 [baicalein] |  |  | portion detected as 7 glycoside after the reaction is complete [3]: ~100% |
| O=c1cc(-c2ccc(O)c(O)c2)oc2cc(O)cc(O)c12 [luteolin] |  | can glycosilate |  |
| O=C1/C(=C/c2ccc(O)c(O)c2)Oc2cc(O)cc(O)c21 [aureusidin] |  | can glycosilate | glycosyl transfer to the substrate by AmGT1 (AmGT1): can transfer a glycosyl group to the positions 6 and 4; glycosilation of the substrate by Ph7GTa (Ph7GTa): activity of glycosilating; glycosilation of the substrate by Ph7GTb (Ph7GTb): activity of glycosilating |
| O=C1C[C@@H](c2ccc(O)cc2)Oc2cc(O)cc(O)c21 [naringenin] |  | very little effect; also recorded: no reaction occurred |  |
| O=c1c(O)c(-c2ccc(O)c(O)c2)oc2cc(O)cc(O)c12 [quercetin] | 6.5% |  | Km [2]: 15 µM; Vmax [2]: 18.9 nkatals/mg |

Reference: US6770747B1, “Genes encoding protein having activity of transferring sugar onto aurone” (Suntory Limited, priority 1999, dated 2004)
